Measured values taken from patent US10808235B2, “Beta-glucosidase and uses thereof” (priority 2015, dated 2020).

Experiments:
Type in all cases: biochemical
[1] = target: Rasamsonia emersonii beta-glucosidase variant polypeptide 4 (SEQ ID NO: 2 with substitution L606A) (Rasamsonia emersonii, UniProt Q8TGI8, L606A); test: Kinetics of cellobiose hydrolysis with and without 20 g/l glucose (NMR, MTP scale, model fit), variant polypeptide 4; details: 10 g/l cellobiose, pH 4.5, 65° C., 20 min; Km set to 0.1 g/L
Procedure: (§1) For the follow-up experiment, five dilutions were made: 2-fold, 4-fold, 8-fold, 16-fold and 32-fold. The beta-glucosidase activity of the variant polypeptides and the wild-type beta-glucosidase was further analyzed in a MTP scale activity assay using cellobiose as substrate and monitoring cellobiose hydrolysis via glucose formation with NMR of the undiluted sample and the five dilutions. The same assay was performed for all dilutions in presence of 20 g/l glucose to determine the glucose tolerance. […] Subsequently, cellobiose and glucose levels in the samples were analyzed with NMR.
(§2) After enzymatic incubation, 100 μl of internal standard solution containing 20 g/I maleic acid and EDTA (40 g/L) in demineralized water, was added to each sample. […] 1D ^1H NMR spectra were recorded on a Bruker Avance III HD 500 MHz, equipped with a He cooled cryo-probe, using a pulse program without water suppression at a temperature of 29° C. with a 90 degrees excitation pulse, acquisition time of 2.7 s and relaxation delay of 30 s. The analyte concentrations (in g/L) were calculated based on the following signals (δ relative to DSS): Cellobiose: H1′ cellobiose peak at 4.50 ppm (d, 1H, J=8 Hz); Glucose: α-H1 glucose/α-H1 cellobiose peak at 5.22 ppm (d, 0.38 H, J=4 Hz). The glucose concentration was determined after correction for cellobiose. […]

[2] = target: T1, Rasamsonia emersonii beta-glucosidase, wild-type, SEQ ID NO: 2 (Rasamsonia emersonii, UniProt Q8TGI8); test: Kinetics of cellobiose hydrolysis with and without 20 g/l glucose (NMR, MTP scale, model fit), wild type; details: 10 g/l cellobiose, pH 4.5, 65° C., 20 min; Km set to 0.1 g/L
T1 sequence (Q8TGI8 20-857): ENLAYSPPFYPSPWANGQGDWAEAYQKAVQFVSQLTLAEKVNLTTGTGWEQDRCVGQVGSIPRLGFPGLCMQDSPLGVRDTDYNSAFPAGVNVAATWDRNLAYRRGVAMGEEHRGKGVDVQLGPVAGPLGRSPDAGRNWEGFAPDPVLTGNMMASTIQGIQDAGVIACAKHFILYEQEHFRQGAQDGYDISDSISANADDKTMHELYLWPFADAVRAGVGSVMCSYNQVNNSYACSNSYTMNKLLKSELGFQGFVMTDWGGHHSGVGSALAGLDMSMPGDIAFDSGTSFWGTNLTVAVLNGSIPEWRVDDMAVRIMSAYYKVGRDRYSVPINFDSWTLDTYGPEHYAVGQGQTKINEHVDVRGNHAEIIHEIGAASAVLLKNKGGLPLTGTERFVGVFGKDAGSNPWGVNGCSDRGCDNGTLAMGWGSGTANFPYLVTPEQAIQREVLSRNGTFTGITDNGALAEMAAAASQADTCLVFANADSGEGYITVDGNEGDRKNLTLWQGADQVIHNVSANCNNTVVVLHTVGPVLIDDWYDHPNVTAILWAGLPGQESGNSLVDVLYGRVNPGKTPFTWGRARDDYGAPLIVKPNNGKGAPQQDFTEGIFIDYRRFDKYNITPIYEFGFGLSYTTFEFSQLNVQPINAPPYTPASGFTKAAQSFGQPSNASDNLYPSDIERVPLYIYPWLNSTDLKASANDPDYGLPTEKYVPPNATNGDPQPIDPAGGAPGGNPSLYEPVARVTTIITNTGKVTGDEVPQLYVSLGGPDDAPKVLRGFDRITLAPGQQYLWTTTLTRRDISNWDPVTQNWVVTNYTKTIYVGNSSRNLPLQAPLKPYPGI
Procedure: as §1, §2

[3] = target: Rasamsonia emersonii beta-glucosidase variant polypeptide 2 (SEQ ID NO: 2 with substitution N103A) (Rasamsonia emersonii, UniProt Q8TGI8, N103A); test: Kinetics of cellobiose hydrolysis with and without 20 g/l glucose (NMR, MTP scale, model fit), variant polypeptide 2; details: 10 g/l cellobiose, pH 4.5, 65° C., 20 min; Km set to 0.1 g/L
Procedure: as §1, §2

[4] = target: Rasamsonia emersonii beta-glucosidase variant polypeptide 1 (SEQ ID NO: 2 with substitutions M90L + M335V + M485I) (Rasamsonia emersonii, UniProt Q8TGI8, M335V/M485I/M90L); test: Kinetics of cellobiose hydrolysis with and without 20 g/l glucose (NMR, MTP scale, model fit), variant polypeptide 1; details: 10 g/l cellobiose, pH 4.5, 65° C., 20 min; Km set to 0.1 g/L
Procedure: as §1, §2

[5] = target: Rasamsonia emersonii beta-glucosidase variant polypeptide 3 (SEQ ID NO: 2 with substitution G142S) (Rasamsonia emersonii, UniProt Q8TGI8, G142S); test: Kinetics of cellobiose hydrolysis with and without 20 g/l glucose (NMR, MTP scale, model fit), variant polypeptide 3; details: 10 g/l cellobiose, pH 4.5, 65° C., 20 min; Km set to 0.1 g/L
Procedure: as §1, §2

[6] = target: T1, Rasamsonia emersonii beta-glucosidase, wild-type, SEQ ID NO: 2; test: Glucose inhibition of initial rate of cellobiose hydrolysis, 100 ml scale (HPLC), wild type; details: 20 g/l glucose, 30 mM cellobiose, pH 4.5, 62° C., 4.5 μg/ml enzyme; read-out: Ratio (V0 in presence of glucose/V0 in absence of glucose)
Procedure: The hits selected from the MTP scale assay were subsequently further characterized by monitoring cellobiose conversion at multiple time points at a larger scale. The beta-glucosidase having the amino acid sequence of SEQ ID NO: 2 was used as reference (parent/wild-type beta-glucosidase). The assay was done as follows: the variant polypeptides and the reference beta-glucosidase were incubated at a concentration of 4.5 μg/ml in a 100 mM NaAc-buffer pH 4.5 with 30 mM cellobiose in a final volume of 100 ml for 2 hours at 62° C. under continuous stirring. […] The glucose and cellobiose content of the samples was determined using a High-Performance Liquid Chromatography System (Agilent 1100) equipped with a refection index detector (Agilent 1260 Infinity). […] The glucose and cellobiose were identified and quantified according to the retention time, which was compared to the external glucose and cellobiose standards ranging from 0.2; 0.4; 1.0; 2.0 g/l.
The concentration cellobiose was plotted against time and the linear part of this curve (the linear part of the cellobiose hydrolysis) was used to calculate the V0 (the initial rate of cellobiose hydrolysis) in the presence and absence of 20 g/l glucose. The ratio of these two calculated rates (V0 in presence of glucose/V0 in absence of glucose) was calculated for the wild-type beta-glucosidase and the variant polypeptides and is listed in Table 2. […]

Rasamsonia emersonii beta-glucosidase variant polypeptide 3 (SEQ ID NO: 2 with substitution G142S), sequence (Q8TGI8 entry or part of it G142S): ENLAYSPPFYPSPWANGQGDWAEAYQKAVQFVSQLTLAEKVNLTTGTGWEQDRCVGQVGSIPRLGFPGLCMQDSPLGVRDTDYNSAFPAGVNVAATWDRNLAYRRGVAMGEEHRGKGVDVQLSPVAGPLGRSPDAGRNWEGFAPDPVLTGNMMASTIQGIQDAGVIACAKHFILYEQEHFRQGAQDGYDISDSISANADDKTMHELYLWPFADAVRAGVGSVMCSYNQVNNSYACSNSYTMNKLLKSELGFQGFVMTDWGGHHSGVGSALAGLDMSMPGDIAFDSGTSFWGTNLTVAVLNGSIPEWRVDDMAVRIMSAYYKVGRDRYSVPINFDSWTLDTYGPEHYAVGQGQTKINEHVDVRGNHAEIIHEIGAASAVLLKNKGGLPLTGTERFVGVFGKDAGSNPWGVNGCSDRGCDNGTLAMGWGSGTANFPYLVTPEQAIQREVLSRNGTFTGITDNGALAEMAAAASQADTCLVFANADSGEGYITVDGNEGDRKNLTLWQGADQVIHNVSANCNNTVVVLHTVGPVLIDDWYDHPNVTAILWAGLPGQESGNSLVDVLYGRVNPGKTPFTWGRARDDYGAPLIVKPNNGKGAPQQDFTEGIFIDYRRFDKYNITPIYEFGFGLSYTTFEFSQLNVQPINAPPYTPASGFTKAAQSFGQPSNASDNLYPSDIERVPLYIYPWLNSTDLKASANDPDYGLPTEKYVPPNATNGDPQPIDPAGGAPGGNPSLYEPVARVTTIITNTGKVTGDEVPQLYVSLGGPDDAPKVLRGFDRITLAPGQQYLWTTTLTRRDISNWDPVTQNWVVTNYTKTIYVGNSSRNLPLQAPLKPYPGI
Rasamsonia emersonii beta-glucosidase variant polypeptide 1 (SEQ ID NO: 2 with substitutions M90L + M335V + M485I), sequence (Q8TGI8 entry or part of it M90L/M335V/M485I): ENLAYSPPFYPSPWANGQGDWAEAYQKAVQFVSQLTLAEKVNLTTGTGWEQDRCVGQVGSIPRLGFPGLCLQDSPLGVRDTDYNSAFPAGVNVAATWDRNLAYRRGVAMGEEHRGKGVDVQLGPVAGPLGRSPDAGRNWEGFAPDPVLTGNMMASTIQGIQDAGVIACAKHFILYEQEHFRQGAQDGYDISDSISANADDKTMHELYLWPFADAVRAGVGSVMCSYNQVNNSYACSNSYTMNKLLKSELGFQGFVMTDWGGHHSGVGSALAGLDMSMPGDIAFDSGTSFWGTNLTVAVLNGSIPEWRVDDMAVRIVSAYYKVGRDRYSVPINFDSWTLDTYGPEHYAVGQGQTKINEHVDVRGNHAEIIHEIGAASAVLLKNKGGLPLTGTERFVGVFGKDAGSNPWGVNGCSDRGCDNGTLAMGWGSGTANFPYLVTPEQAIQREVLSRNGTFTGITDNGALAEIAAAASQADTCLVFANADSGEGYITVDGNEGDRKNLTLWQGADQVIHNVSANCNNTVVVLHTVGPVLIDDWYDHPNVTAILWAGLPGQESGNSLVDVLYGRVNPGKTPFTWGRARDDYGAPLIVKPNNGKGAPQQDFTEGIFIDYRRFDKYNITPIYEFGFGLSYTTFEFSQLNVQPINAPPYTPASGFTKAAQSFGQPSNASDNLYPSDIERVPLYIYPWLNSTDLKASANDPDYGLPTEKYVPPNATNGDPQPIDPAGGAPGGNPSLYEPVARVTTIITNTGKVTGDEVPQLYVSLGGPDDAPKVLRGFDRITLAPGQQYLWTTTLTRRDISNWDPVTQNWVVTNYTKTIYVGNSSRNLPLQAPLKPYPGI
Rasamsonia emersonii beta-glucosidase variant polypeptide 2 (SEQ ID NO: 2 with substitution N103A), sequence (Q8TGI8 entry or part of it N103A): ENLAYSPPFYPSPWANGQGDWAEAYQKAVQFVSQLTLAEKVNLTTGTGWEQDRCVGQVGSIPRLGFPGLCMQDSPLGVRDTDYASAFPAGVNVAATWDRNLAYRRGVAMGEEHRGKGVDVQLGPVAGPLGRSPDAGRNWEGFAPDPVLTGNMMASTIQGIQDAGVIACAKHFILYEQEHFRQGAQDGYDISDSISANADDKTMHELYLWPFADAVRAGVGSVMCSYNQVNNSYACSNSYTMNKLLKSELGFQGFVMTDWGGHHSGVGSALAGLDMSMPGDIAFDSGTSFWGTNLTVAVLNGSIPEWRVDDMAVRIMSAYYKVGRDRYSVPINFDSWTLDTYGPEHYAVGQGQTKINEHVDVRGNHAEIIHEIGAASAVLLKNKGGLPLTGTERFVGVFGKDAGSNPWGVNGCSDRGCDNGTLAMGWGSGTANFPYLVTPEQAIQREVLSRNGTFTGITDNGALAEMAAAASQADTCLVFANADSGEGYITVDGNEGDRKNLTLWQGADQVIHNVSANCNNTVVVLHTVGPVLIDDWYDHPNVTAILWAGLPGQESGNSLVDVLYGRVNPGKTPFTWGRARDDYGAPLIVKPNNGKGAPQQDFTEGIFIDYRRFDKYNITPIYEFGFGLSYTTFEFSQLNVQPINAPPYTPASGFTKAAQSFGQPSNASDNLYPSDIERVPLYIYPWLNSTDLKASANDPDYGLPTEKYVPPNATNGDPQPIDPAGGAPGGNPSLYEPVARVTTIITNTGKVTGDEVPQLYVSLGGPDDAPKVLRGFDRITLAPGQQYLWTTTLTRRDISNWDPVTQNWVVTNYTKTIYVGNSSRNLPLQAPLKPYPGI
Rasamsonia emersonii beta-glucosidase variant polypeptide 4 (SEQ ID NO: 2 with substitution L606A), sequence (Q8TGI8 entry or part of it L606A): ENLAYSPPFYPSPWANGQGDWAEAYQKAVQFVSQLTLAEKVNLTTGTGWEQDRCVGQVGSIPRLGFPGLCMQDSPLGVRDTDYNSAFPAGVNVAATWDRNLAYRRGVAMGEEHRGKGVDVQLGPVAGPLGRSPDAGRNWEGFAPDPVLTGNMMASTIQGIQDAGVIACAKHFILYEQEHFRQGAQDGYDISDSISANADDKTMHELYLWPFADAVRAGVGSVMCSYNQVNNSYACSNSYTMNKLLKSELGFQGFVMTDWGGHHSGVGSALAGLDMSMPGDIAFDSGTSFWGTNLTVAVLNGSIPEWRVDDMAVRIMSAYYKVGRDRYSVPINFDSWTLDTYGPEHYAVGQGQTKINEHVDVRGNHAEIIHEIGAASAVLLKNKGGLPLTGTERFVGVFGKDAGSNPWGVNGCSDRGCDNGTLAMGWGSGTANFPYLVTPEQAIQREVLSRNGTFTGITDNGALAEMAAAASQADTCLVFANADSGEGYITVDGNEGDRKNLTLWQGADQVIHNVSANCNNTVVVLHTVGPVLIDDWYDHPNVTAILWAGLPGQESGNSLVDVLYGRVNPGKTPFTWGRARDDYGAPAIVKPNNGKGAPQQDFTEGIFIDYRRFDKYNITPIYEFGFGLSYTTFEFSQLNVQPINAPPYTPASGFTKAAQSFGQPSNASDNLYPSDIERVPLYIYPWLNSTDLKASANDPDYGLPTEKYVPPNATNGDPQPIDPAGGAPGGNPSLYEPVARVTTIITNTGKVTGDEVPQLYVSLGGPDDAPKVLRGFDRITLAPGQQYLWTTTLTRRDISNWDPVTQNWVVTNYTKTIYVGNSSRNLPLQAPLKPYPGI

Row | Compound | kcat (cellobiose), model prediction [1] | kcat (cellobiose), model prediction [2] | kcat (cellobiose), model prediction [3] | kcat (cellobiose), model prediction [4] | kcat (cellobiose), model prediction [5] | activity at 20000 µg/mL [6]
1 | OC[C@H]1O[C@@H](O[C@H]2[C@H](O)[C@@H](O)C(O)O[C@@H]2CO)[C@H](O)[C@@H](O)[C@@H]1O (stereo partly drawn) [cellobiose] | 2.7 unitless | 1.0 unitless | 1.1 unitless | 0.9 unitless | 0.8 unitless | –
2 | OC[C@H]1OC(O)[C@H](O)[C@@H](O)[C@@H]1O (stereo partly drawn) [glucose] | – | – | – | – | – | 18%
